# Patent publication US4692463A, “Antiinflammatory 2,3-didemethylcolchicine and additional derivatives” (The United States of America as represented by the …, priority 1985, dated 1987)
# Experiments:
# [1] = system: swelling produced by injecting carrageenin into the footpad; experiment: animal or person; assay type: in vivo, mice or rats; settings: for Reduction of Swelling 3 hrs / Reduction of Swelling 5 hrs: dose 2 mg/kg i.p.; for Reduction of Swelling 3 hrs: 3 hours after; for Reduction of Swelling 5 hrs: 5 hours after; for minimal effective dose: Mus musculus, ip, classical drugs, carrageenin swelling screen, read-out: Dose level at which active (antiinflammatory)
# Source text: The antiinflammatory properties of colchinoids can be evaluated in a classical screening that measures the reduction of swelling produced by injecting (i.p.) carrageenin into the footpad of mice or rats and drug treatment. The drugs can be given orally or intraperitoneally.
# Drug given in carrageenine or thyrode solution by i.p.
# tubulin protein = assay type: binding; settings: in vitro
# [2] = Toxicity measured in the P388 screen (weight loss in mice); assay type: in vivo; settings: for Toxicity: dose which caused average weight loss in mice of 3 g or more: P388 screen
# Source text: ^1 Measured in the P388 screen and defined as dose which caused
# average weight loss in mice of 3 g or more.
Compound,Reduction of Swelling 3 hrs [1],Reduction of Swelling 5 hrs [1],Binding to tubulin protein in comparison to colchicine (in words) (tubulin protein),Toxicity: dose which caused average weight loss in mice of 3 g or more [2],Toxicity in comparison to colchicine (in words) ([2]; experimental animals),minimal effective dose [1] [mg/kg]
"COc1c(O)c(O)cc2c1-c1ccc(OC)c(=O)cc1[C@@H](NC(C)=O)CC2 [2,3-Didemethylcolchicine]",70,60,bind less,54,much less toxic,–
COc1cc2c(c(OC)c1OC)-c1ccc(OC)c(=O)cc1[C@@H](NC(C)=O)CC2 [Colchicine],44,45,–,2.5,–,–
"COc1c2c(cc3c1-c1ccc(OC)c(=O)cc1[C@@H](NC(C)=O)CC3)OCO2 [Cornigerine, 2,3-(Methylenedioxy)-2,3-didemethoxycolchicine]",44,47,–,39,–,–
"COc1ccc2c(c1)c(CC(=O)O)c(C)n2C(=O)c1ccc(Cl)cc1 [indomethacine, reference compound]",–,–,–,–,–,≥ 100
"CCCCC1C(=O)N(c2ccccc2)N(c2ccccc2)C1=O [phenybutazone, reference compound]",–,–,–,–,–,≥ 100
